The source of these data is patent US9918981B2, “Liquid buprenorphine formulations” (Insys Development Company, Inc., priority 2013, dated 2018).

This data set can be described thus: Bioavailability of buprenorphine sublingual spray vs Buprenex intramuscular and intravenous injection, crossover study. The conditions noted are these: for AUC(0-t) / AUC(inf) / Cmax / Tmax / t½ / λz: overnight fast.
The mark [1] stands for this setting: Intramuscular 0.3 mg (Buprenex injection).
The mark [2] stands for this setting: Intravenous 0.3 mg (Buprenex bolus injection).
Where [3] appears, read: after sublingual administration (1 mg spray).

Text: This was an open-label, 3-treatment, 3-period, 6-sequence, single-dose, randomized crossover study. Eighteen healthy male and female volunteers were randomly assigned to 1 of 6 treatment sequences. Dosing occurred after an overnight fast and there was a minimum 14-day washout between the dosing in two periods.

In general, AUC(0-t) refers to exposure summed from dosing to a finite time, without extrapolation to infinity. Read a high AUC(0-t) as more exposure. By Cmax is commonly meant the maximum level reached in the sampled fluid or tissue. For orientation: Tmax means the time from dosing to the highest level. One may read the t½ as the time in which the quantity being followed falls by half. As for Buprenorphine, under setting [1], the “AUC(0-t)” value amounted to 4.97 ± 0.90 ng·h/mL, the “AUC(inf)” value is 5.50 ± 0.83 ng·h/mL, the Cmax is 1.73 ± 1.08 ng/mL and the Tmax was 10.2 min. Under setting [1], this substance showed a t½ of 12.0 ± 5.31 h and a λz of 0.0655 ± 0.0210. Moreover, under setting [2], the “AUC(0-t)” value amounted to 5.09 ± 1.01 ng·h/mL, the “AUC(inf)” value was found to be 5.51 ± 1.21 ng·h/mL, the Cmax amounted to 3.95 ± 3.66 ng/mL and the Tmax is 4.98 min. Besides, under setting [2], the t½ was determined as 9.37 ± 6.49 h and the λz is on record as 0.1028 ± 0.0641. Besides, under setting [3], the “absolute bioavailability based on AUC(0-t)” value is 41.03% and the “absolute bioavailability based on AUC(inf)” value amounted to 42.57%.
